Measured values taken from the NIST ThermoML archive (doi:10.1021/je0301794).
“And” between values parts separate entries of the source, which are not always exact repeats. Identical values can stand only once. Numbers after ± are expanded uncertainties.

What was measured:
[1] = Liquid; for mass density: 101.3 kPa; for Normal boiling temperature: Closed cell (Static) method
[2] = excess molar enthalpy (molar enthalpy of mixing); xn = mol fraction of the nth substance listed; conditions: 318.15 K, 101.3 kPa, Liquid
[3] = xn = mol fraction of the nth substance listed; conditions: 101.3 kPa, Liquid

| SMILES | mass density ([1]; 298.15 K) [kg/m3] | mass density ([1]; 303.15 K) | mass density ([1]; 313.15 K) [kg/m3] | mass density ([1]; 318.15 K) [kg/m3] | Normal boiling temperature [1] [°C] | mass density ([1]; 293.15 K) [kg/m3] | also measured |
| --- | --- | --- | --- | --- | --- | --- | --- |
| CCCCCCCCCC [decane] | 726.2 ± 0.5 | 722.3 ± 0.5 kg/m3 | 714.7 ± 0.5 | 710.9 ± 0.5 | 173.8 ± 0.2 | – | – |
| COC(=O)OC [dimethyl carbonate] | 1063.5 ± 0.6 | 1056.5 ± 0.6 kg/m3 and 1056.6 ± 0.6 kg/m3 | 1043.4 ± 0.5 | 1036.9 ± 0.5 | 90.31 ± 0.2 | 1070 ± 0.6 | – |
| COC(=O)OC [dimethyl carbonate] + CCCCCCCCC | – | – | – | – | – | – | excess molar enthalpy ([2]; x1 = 1): 0 ± 0.000478 kcal/mol; mass density ([3]; 293.15 K, x1 = 1): 1070 ± 0.6 kg/m3; mass density ([3]; 298.15 K, x1 = 1): 1063.5 ± 0.6 kg/m3; mass density ([3]; 303.15 K, x1 = 1): 1056.6 ± 0.6 kg/m3; mass density ([3]; 313.15 K, x1 = 1): 1043.4 ± 0.5 kg/m3; mass density ([3]; 318.15 K, x1 = 1): 1036.9 ± 0.5 kg/m3 |
| COC(=O)OC [dimethyl carbonate] + CCCCCCCCCC | – | – | – | – | – | – | excess molar enthalpy ([2]; x1 = 1): 0 ± 0.000478 kcal/mol; mass density ([3]; 298.15 K, x1 = 1): 1063.5 ± 0.6 kg/m3; mass density ([3]; 303.15 K, x1 = 1): 1056.6 ± 0.6 kg/m3; mass density ([3]; 313.15 K, x1 = 1): 1043.4 ± 0.5 kg/m3; mass density ([3]; 318.15 K, x1 = 1): 1036.9 ± 0.5 kg/m3 |
| CCCCCCC [heptane] | 679.4 ± 0.5 | 675.3 ± 0.5 kg/m3 | 666.6 ± 0.5 | 661.5 ± 0.5 | 98.03 ± 0.2 | 683.6 ± 0.5 | – |
| CCCCCCC [heptane] + COC(=O)OC | – | – | – | – | – | – | excess molar enthalpy ([2]; x2 = 0): 0 ± 0.000478 kcal/mol; mass density ([3]; 293.15 K, x2 = 0): 683.6 ± 0.5 kg/m3; mass density ([3]; 298.15 K, x2 = 0): 679.4 ± 0.5 kg/m3; mass density ([3]; 303.15 K, x2 = 0): 675.3 ± 0.5 kg/m3; mass density ([3]; 313.15 K, x2 = 0): 666.6 ± 0.5 kg/m3; mass density ([3]; 318.15 K, x2 = 0): 661.5 ± 0.5 kg/m3 |
| CCCCCC [hexane] | 654.8 ± 0.5 | 650.4 ± 0.5 kg/m3 | 641.1 ± 0.6 | 636.4 ± 0.6 | 68.78 ± 0.2 | 659.3 ± 0.5 | – |
| CCCCCC [hexane] + COC(=O)OC | – | – | – | – | – | – | excess molar enthalpy ([2]; x2 = 0): 0 ± 0.000478 kcal/mol; mass density ([3]; 293.15 K, x2 = 0): 659.3 ± 0.5 kg/m3; mass density ([3]; 298.15 K, x2 = 0): 654.8 ± 0.5 kg/m3; mass density ([3]; 303.15 K, x2 = 0): 650.4 ± 0.5 kg/m3; mass density ([3]; 313.15 K, x2 = 0): 641.1 ± 0.6 kg/m3; mass density ([3]; 318.15 K, x2 = 0): 636.4 ± 0.6 kg/m3 |
| CCCCCCCC [octane] + COC(=O)OC | – | – | – | – | – | – | excess molar enthalpy ([2]; x2 = 0): 0 ± 0.000478 kcal/mol; mass density ([3]; 293.15 K, x2 = 0): 702.5 ± 0.5 kg/m3; mass density ([3]; 298.15 K, x2 = 0): 698.5 ± 0.5 kg/m3; mass density ([3]; 303.15 K, x2 = 0): 694.5 ± 0.5 kg/m3; mass density ([3]; 313.15 K, x2 = 0): 686.3 ± 0.5 kg/m3; mass density ([3]; 318.15 K, x2 = 0): 682.1 ± 0.5 kg/m3 |

The next lines start with results.

| mass density ([1]; 298.15 K) [kg/m3] | mass density ([1]; 303.15 K) | mass density ([1]; 313.15 K) [kg/m3] | mass density ([1]; 318.15 K) [kg/m3] | Normal boiling temperature [1] [°C] | mass density ([1]; 293.15 K) [kg/m3] | SMILES | also measured |
| --- | --- | --- | --- | --- | --- | --- | --- |
| 713.9 ± 0.5 | 710.1 ± 0.5 kg/m3 | 702.2 ± 0.5 | 698.1 ± 0.5 | 150.51 ± 0.2 | 717.7 ± 0.5 | CCCCCCCCC [nonane] | – |
| 698.5 ± 0.5 | 694.5 ± 0.5 kg/m3 | 686.3 ± 0.5 | 682.1 ± 0.5 | 125.50 ± 0.2 | 702.5 ± 0.5 | CCCCCCCC [octane] | – |
